Results reported in patent US12031087B2, “Oxygenated solvents for improved production of oil and gas” (Board of Regents, The University of Texas System, priority 2019, dated 2024).
Like-named read-outs stand apart in the source and are kept apart here.

Legend:
[1] = Description: Experimental Procedure for Flooding/Soaking Experiments. […] This section describes the preparation of the tight cores and the flooding/soaking experiments. Properties of the tight carbonate cores and the injection scheme for two flooding/soaking experiments are also summarized in this section.
Rocherons carbonate cores (Kocurek Industries Inc.) were used in this research. […] In this research, 11 core pieces were saturated only by crude oil and 5 core pieces were saturated by both crude oil and reservoir brine at room temperature. To saturate core pieces by crude oil, they were placed in an accumulator, which was evacuated for at least 24 hours. […] The weights of the core pieces were measured before and after saturating by crude oil to quantify the oil volume in the cores. The volume so determined was assumed to be the accessible pore volume (PV) of the core. […] It consists of an accumulator for reservoir brine, a pump, a Hassler-type core-holder, a hydraulic manual pump to maintain the overburden pressure and cylinders. Before brine injection, the inlet tubing of the coreholder was evacuated for 10 seconds to prevent injecting air into the core. The core was flooded by brine until the injected brine volume exceeded the accessible pore volume. […] The weights of the core pieces were measured after they were re-saturated by the crude oil. The brine and oil volumes in the core pieces were calculated by the following equations. […] Then, oil and brine saturations in each core piece can be calculated. Table 19 presents the properties of the core pieces, including the length of each core piece, accessible pore volume, and oil and brine saturations. Core pieces #1-#5 in Table 19 were saturated by both brine and oil.
An artificial fracture was created along the longitudinal axis using an electric saw for each core piece. Teflon spacers with 0.001 m in width were placed along two edges of the fracture to maintain a fracture aperture. Then, the core halves were carefully put together with the Teflon spacers placed in the fracture, wrapped with a Teflon tube and placed inside a horizontally-oriented core holder, with the fracture vertically-oriented. Teflon spacer was not placed in the space between core pieces. […] When assembling the core pieces for Case 1, core pieces were put so that oil saturation changes monotonically. Qualitatively, the longitudinal fracture served as a propped fracture and the fractures normal to it served as unpropped fractures in terms of hydraulic paths.
FIG. 59 presents a schematic of the experimental set-up for the flooding/soaking experiment. […] Then, the system was evacuated for 10 seconds to remove any air trapped in the fractures. After that, the core was flooded with crude oil to measure the fracture permeability by using the flow rate of 500 cm^3/hr under certain overburden pressure. Table 20 provides the pressure drops along the cores at a certain flow rate and the overburden pressures used.
During flooding/soaking experiments, the RB was injected at 6 ml/hr until no more oil production was observed. Then, the surfactant solution was injected at 6 ml/hr to fill the volume from the inlet of the coreholder until the outlet line of the coreholder, which was followed by a 10-hour soaking period. After that, the surfactant solution was injected at 6 ml/hr to chase the fluid in the system and to recover the produced oil during the first soaking period. The system was then shut-in for a second 10-hour soaking period. RB was then injected at 6 ml/hr to chase the fluid in the system and to recover the produced oil during the second soaking period. Finally, the system was shut-in for a 12-hour soaking period, followed by RB injection to chase the fluid in the system until no oil production.
The effluent was collected in plastic graduating cylinders at room temperature.

[2] = Coreflooding of fractured cores, vertical (Example 2)
Description: Experimental Procedure for Coreflooding. […] The Indiana limestone cores have the common dimensions with a diameter of 0.0254 m and a length of 0.127 m. The cores were saturated with RB first and then oil, during which the core properties were measured, such as porosity, permeability, and water and oil saturations.
It includes an accumulator for crude oil, a pump, a Hassler-type core holder, a hydraulic manual pump to maintain the overburden pressure, a differential pressure gauge, cylinders, and an oven. After a core was placed in the core holder, oil was injected into the cores at 100 cm^3/h and 347 K until no water production was observed.
An artificial fracture was created along the longitudinal axis using an electric saw for each core (FIG. 20). By following the procedure of Mejia, Teflon spacers with 0.001 m in width and 0.127 m in length were placed along two edges of the fracture to maintain a fracture aperture. Then, the core halves were carefully put together with the Teflon spacers in the fracture, wrapped with a Teflon tube, and placed inside a vertically oriented coreholder.
FIG. 21 provides a schematic of the experimental setup for coreflooding. It consists of accumulators for crude oil, RB, and chemical solution (3-pentanone or surfactant), a pump, a Hassler-type core holder, a hydraulic manual pump to maintain the overburden pressure, a differential pressure gauge, cylinders, and an oven. […] After a fractured core was placed in the coreholder, the oven temperature was increased to reservoir temperature (347 K). Then, the core was flooded with crude oil to remove any gas inside the fracture and measure the fracture permeability using the flow rate of 900 cm^3/h. The overburden pressure was adjusted so that all cores used in this research had similar fracture apertures and fracture permeabilities.
Fracture permeabilities were calculated. The equation for flow between parallel plates b=(3πdke)^1/3 was used to estimate a fracture aperture, where b is the fracture aperture, d is the core diameter, and ke is the effective oil permeability of the fractured core. […] Af and Am are cross-sectional areas of the fracture and matrix, respectively. kf and km are permeabilities of the fracture and matrix, respectively.
The initial RB stage was at 6 cm^3/h for 1.5 pore volumes injected (PVI), then at 0.05 cm^3/h for 0.3-0.4 PVI, and at 6 cm^3/h until there was no oil production. After that, a chemical slug (3-pentanone or surfactant) was injected at 0.6 cm^3/h for 1.6 PVI. Finally, the chase RB was injected at 0.6 cm^3/h. […] However, it was terminated after 1.2 PVI of the chase RB for core 1 because of operational constraints.
The coreflood effluent was collected in plastic graduating cylinders at room temperature. To correct the oil recovery factor for 3-pentanone solubility in oil, the 3-pentanone concentration in recovered oil was measured by the proton nuclear magnetic resonance (H NMR) method for the chemical slug and chase RB flooding periods for core 1.

[3] = 347 K
Description: Contact Angle Experiments. […] The procedure largely follows that of Example 1, but as explained below, a change to the previous procedure was necessary because it was not possible to continuously monitor oil droplets on the calcite surface with the surfactant solution.
Before the contact angle measurement, the chemical solution and RB were separately degasified at elevated temperatures. Then, oil-aged calcite pieces were placed in RB. Oil droplets were placed on the bottom surface of a calcite piece in the RB glass chamber.
The calcite piece was continued to be placed in the surfactant solution and taken out after 1 day. Then, the calcite piece was rinsed with RB and placed in RB with no surfactant. […] A photo of the oil droplet was taken then. The contact angles of both sides of each oil droplet were measured using onscreen protractor software. An average contact angle and standard deviation were then calculated.

[4] = 24 h after immersion in 1.0 wt % surfactant solution

Substance: 2-ethylhexanol-4 propylene oxide-15 ethylene oxide [2-EH-4PO-15EO]
- total improved oil recovery ([1]; Case 1 (with initial water)): 76.11 % OOIM
- Cumulative improved oil recovery factor by surfactant solution ([1]; Case 1 (with initial water), after the 1st soaking period): 0.3348
- Cumulative improved oil recovery factor by surfactant solution ([1]; Case 1 (with initial water), after the 2nd soaking period): 0.6303
- Cumulative improved oil recovery factor by surfactant solution ([1]; Case 1 (with initial water), after the 3rd soaking period): 0.7611
- incremental oil recovery ([1]; Case 1, after the 1st soaking period): 33.48 % OOIM
- incremental oil recovery ([1]; Case 1, after the 2nd soaking period): 29.55 % OOIM
- incremental oil recovery ([1]; Case 1, after the 3rd soaking period): 13.09 % OOIM
- total improved oil recovery ([1]; Case 2 (without initial water)): 78.42 % OOIM
- Cumulative improved oil recovery factor by surfactant solution ([1]; Case 2 (without initial water), after the 1st soaking period): 0.3555
- Cumulative improved oil recovery factor by surfactant solution ([1]; Case 2 (without initial water), after the 2nd soaking period): 0.6647
- Cumulative improved oil recovery factor by surfactant solution ([1]; Case 2 (without initial water), after the 3rd soaking period): 0.7842
- incremental oil recovery ([1]; Case 2, after the 1st soaking period): 35.55 % OOIM
- incremental oil recovery ([1]; Case 2, after the 2nd soaking period): 30.92 % OOIM
- incremental oil recovery ([1]; Case 2, after the 3rd soaking period): 11.95 % OOIM
- incremental oil recovery factor, chemical slug stage ([2]; 1.6 PVI slug after first RB flood, 1.1 wt % 3-pentanone in RB (core 1) or 1.0 wt % 2-EH-4PO-15EO in RB (core 2), 347 K): 23.6%
- incremental oil recovery factor, chase RB flooding stage ([2]; 7.0 PVI chase RB, core 2, 347 K): 23.7%
- total improved oil recovery ([2]; chemical slug + chase RB stages (1.2 PVI chase core 1; 7.0 PVI chase core 2), 347 K): 47.3%
- Average contact angle [3, 4]: 47.1 deg
- contact angle, left side [3, 4]: 47.5 deg
- contact angle, right side [3, 4]: 46.8 deg
- Average contact angle ([3]; at the initialization): 134.1 deg
- contact angle, left side ([3]; at the initialization): 133.2 deg
- contact angle, right side ([3]; at the initialization): 135.1 deg
